In patent publication US20230242544A1, “QUINAZOLINE COMPOUNDS, PREPARATION METHODS AND USES THEREOF” (INVENTISBIO CO., LTD., priority 2020, published 2023):

Key:
[1] = target: recombinant human KRAS^G12D protein (Homo sapiens, UniProt P01116, G12D); experiment: Temperature-dependent Fluorescence (TdF) KRAS G12D protein binding assay; conditions: 6 μM KRAS^G12D protein, 10 μM compound, Sypro Orange; Kd calculated from the fluorescent shift
Description: The Temperature-dependent Fluorescence (TdF) assay was used to analyze binding affinity of compound to recombinant human KRAS^G12D protein. The TdF assay was conducted in the 96-well-based real-time fluorescence plate reader (ABI 7500 or Roche LightCycler 480). Fluorescent dye Sypro Orange (Sigma) was used to monitor the protein folding-unfolding transition. Protein-compound binding was gauged by the shift in the unfolding transition temperature (ΔTm) acquired with and without compound. Each reaction sample consists of 6 μM KRAS^G12D Protein, 10 μM compound, and Sypro Orange dye (in 1% DMSO) in 20 μL reaction buffer (25 mM HEPES pH 7.5, 150 mM NaCl, 10 mM MgCl2). […] Binding affinity (Kd value) was calculated based on the degree of fluorescent shift of the protein with and without compound.

[2] = target: Ba/F3_KRAS^G12D cells (Homo sapiens, UniProt P01116, G12D, cells depend on it); experiment: Ba/F3 KRAS G12D cell proliferation assay (CellTiter-Glo); type: cell-based; conditions: treated for 3 days, cell-titer Glo, cell growth inhibition, read-out: BaF3_KRAS^G12D IC50
Description: Ba/F3_KRAS^G12D cells (KYinno, China) were generated by transducing Ba/F3 parental cells with the recombinant KRAS^G12D lentivirus and followed by 1 ug/mL of puromycin selection and IL3 depletion. […] Cells were seeded at a density of 5×10^3 per well into 96-well plate and incubated overnight. Serial diluted compounds were added to each well. Cells were treated with the compounds for 3 days, after which cell-titer Glo reagent (Promega #G7572) was used to assess cell proliferation. The luminescence signal was then collected on Tecan Spark plate reader. […] Cell growth inhibition of IC50 is calculated with the equation of Y=Bottom+(Top−Bottom)/(1+10^((Log IC50−X)*Hill Slope))

Chain of Ba/F3_KRAS^G12D cells (P01116 whole entry G12D): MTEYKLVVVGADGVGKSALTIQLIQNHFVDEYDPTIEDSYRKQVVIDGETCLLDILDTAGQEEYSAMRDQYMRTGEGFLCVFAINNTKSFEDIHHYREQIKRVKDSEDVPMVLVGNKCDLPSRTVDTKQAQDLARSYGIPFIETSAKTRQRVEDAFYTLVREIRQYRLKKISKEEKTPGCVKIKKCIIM
Chain of recombinant human KRAS^G12D protein (P01116 1-188 isoform P01116-2 G12D): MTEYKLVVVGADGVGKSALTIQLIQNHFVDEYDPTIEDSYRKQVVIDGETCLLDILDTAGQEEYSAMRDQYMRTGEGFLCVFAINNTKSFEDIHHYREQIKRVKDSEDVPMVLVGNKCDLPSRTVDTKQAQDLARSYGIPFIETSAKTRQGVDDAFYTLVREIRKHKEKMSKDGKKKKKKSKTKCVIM

Row | SMILES | Kd [1] [µM] | GI50 [2] [µM]
1 | Oc1cc(-c2c(Cl)cc3c(N4CC5CCC(C4)N5)nc(OCCN4CCOCC4)nc3c2F)c2ccccc2c1 [Compound 59] | > 5 | 0.5 to 5
2 | CN1CCC(c2nc(N3CC4CCC(C3)N4)c3cc(Cl)c(-c4cc(O)cc5ccccc45)c(F)c3n2)CC1 [Compound 60] | > 5 | 0.5 to 5
3 | Oc1cc(-c2c(Cl)cc3c(N4CC5CCC(C4)N5)nc(OCC45CCCN4CCC5)nc3c2F)c2c(Cl)cccc2c1 [Compound 61] | < 0.5 | 0.5 to 5
4 | Fc1c(-c2cccc3cccc(Cl)c23)c(Cl)cc2c(N3CC4CCC(C3)N4)nc(OCC34CCCN3CCC4)nc12 [Compound 64] | 0.5 to 5 | < 0.5
5 | Oc1cc(-c2c(Cl)cc3c(N4CC5CCC(C4)N5)nc(OCC45CCCN4CC(F)(F)C5)nc3c2F)c2c(Cl)cccc2c1 (stereo not drawn) [Compound 65] | < 0.5 | 0.5 to 5
6 | Nc1cccc(F)c1-c1c(Cl)cc2c(N3C4CCC3CNC4)nc(OCC34CCCN3CCC4)nc2c1F [Compound 66] | > 5 | > 5
7 | Oc1cccc(F)c1-c1c(Cl)cc2c(N3C4CCC3CNC4)nc(OCC34CCCN3CCC4)nc2c1F [Compound 67] | 0.5 to 5 | > 5
8 | Fc1c(-c2cccc3ccccc23)c(Cl)cc2c(N3CC4CCC(C3)N4)nc(OCC34CCCN3CCC4)nc12 [Compound 69] | 0.5 to 5 | 0.5 to 5
9 | Oc1ccc2ccccc2c1-c1c(Cl)cc2c(N3CC4CCC(C3)N4)nc(OCC34CCCN3CCC4)nc2c1F [Compound 70] | 0.5 to 5 | > 5
10 | Fc1c(-c2cccc3cccc(Cl)c23)c(Cl)cc2c(N3C4CCC3CNC4)nc(OCC34CCCN3CCC4)nc12 [Compound 72] | 0.5 to 5 | 0.5 to 5
11 | Oc1cc(-c2c(Cl)cc3c(N4CC5CCC(C4)N5)nc(OC[C@@]45CCCN4C[C@H](F)C5)nc3c2F)c2c(Cl)c(F)ccc2c1 [Compound 74] | < 0.5 | < 0.5
12 | Cc1cccc2[nH]nc(-c3c(Cl)cc4c(N5CC6CCC(C5)N6)nc(OC[C@@H]5CCCN5C)nc4c3F)c12 [Compound 75] | > 5 | 0.5 to 5
13 | CN1C[C@H](F)C[C@H]1COc1nc(N2CC3CCC(C2)N3)c2cc(Cl)c(-c3cc(O)cc4ccccc34)c(F)c2n1 [Compound 76] | < 0.5 | 0.5 to 5
14 | Oc1cc(-c2c(Cl)cc3c(N4CC5CCC(C4)N5)nc(OCCN4CCCC4)nc3c2F)c2ccccc2c1 [Compound 78] | > 5 | 0.5 to 5
15 | CN1CCC1COc1nc(N2CC3CCC(C2)N3)c2cc(Cl)c(-c3cc(O)cc4ccccc34)c(F)c2n1 (stereo not drawn) [Compound 79] | < 0.5 | 0.5 to 5
16 | CN1C[C@H](O)C[C@H]1COc1nc(N2CC3CCC(C2)N3)c2cc(Cl)c(-c3cc(O)cc4ccccc34)c(F)c2n1 [Compound 80] | < 0.5 | > 5
17 | Oc1cc(-c2c(Cl)cc3c(N4CC5CCC(C4)N5)nc(OCC45CCCN4CC(F)(F)C5)nc3c2F)c2ccccc2c1 (stereo not drawn) [Compound 81] | < 0.5 | 0.5 to 5
18 | Oc1cc(-c2ccc3c(N4CC5CCC(C4)N5)nc(OCC45CCCN4CCC5)nc3c2F)c2c(Cl)cccc2c1 [Compound 82] | > 5 | > 5
19 | CN1CCN(c2nc(N3CC4CCC(C3)N4)c3cc(Cl)c(-c4cc(O)cc5ccccc45)c(F)c3n2)CC1 [Compound 83] | > 5 | 0.5 to 5
20 | Oc1cc(-c2c(Cl)cc3c(N4CC5CCC(C4)N5)nc(OCC45CCCN4CCC5)nc3c2F)c2ccccc2c1 [Compound 85] | < 0.5 | < 0.5
21 | N#Cc1cc2c(N3CC4CCC(C3)N4)nc(OC[C@@]34CCCN3C[C@H](F)C4)nc2c(F)c1-c1cc(O)cc2ccccc12 [Compound 86] | < 0.5 | < 0.5
22 | Cc1cccc2cccc(-c3c(C#N)cc4c(N5CC6CCC(C5)N6)nc(OC[C@@]56CCCN5C[C@H](F)C6)nc4c3F)c12 [Compound 87] | 0.5 to 5 | 0.5 to 5
23 | Cc1cccc2cc(O)cc(-c3c(C#N)cc4c(N5CC6CCC(C5)N6)nc(OC[C@@]56CCCN5C[C@H](F)C6)nc4c3F)c12 [Compound 88] | < 0.5 | < 0.5
24 | N#Cc1cc2c(N3CC4CCC(C3)N4)nc(OC[C@@]34CCCN3C[C@H](F)C4)nc2c(F)c1-c1cccc2cccc(Cl)c12 [Compound 89] | 0.5 to 5 | 0.5 to 5

Row | SMILES | Kd [1] [µM] | GI50 [2] [µM]
25 | N#Cc1cc2c(N3CC4CCC(C3)N4)nc(OC[C@@]34CCCN3C[C@H](F)C4)nc2c(F)c1-c1c(N)cccc1F [Compound 91] | > 5 | 0.5 to 5
26 | Cc1ccc2[nH]ncc2c1-c1c(C#N)cc2c(N3CC4CCC(C3)N4)nc(OC[C@@]34CCCN3C[C@H](F)C4)nc2c1F [Compound 92] | < 0.5 | < 0.5
27 | N#CC[C@H]1CN(c2nc(OC[C@@]34CCCN3C[C@H](F)C4)nc3c(F)c(-c4cc(O)cc5ccccc45)c(Cl)cc23)CCN1 [Compound 96] | > 5 | 0.5 to 5
28 | Cc1cc(F)c2sc(N)nc2c1-c1c(Cl)cc2c(N3CC4CCC(C3)N4)nc(OC[C@@]34CCCN3C[C@H](F)C4)nc2c1F [Compound 100] | < 0.5 | 0.5 to 5
29 | Cc1cc(-c2c(Cl)cc3c(N4CC5CCC(C4)N5)nc(OC[C@@H]4CCCN4C)nc3c2F)cc2[nH]ncc12 [Compound 109] | > 5 | 0.5 to 5
30 | Nc1cc2ccccc2c(-c2c(Cl)cc3c(N4CC5CCC(C4)N5)nc(OCC45CCCN4CCC5)nc3c2F)n1 [Compound 116] | 0.5 to 5 | > 5
31 | CN1CCC[C@H]1COc1nc(-c2cnc(N)s2)c2cc(Cl)c(-c3cc(O)cc4cccc(Cl)c34)c(F)c2n1 [Compound 121] | > 5 | > 5
32 | CNC(=O)c1cc2c(N3CC4CCC(C3)N4)nc(OC[C@@]34CCCN3C[C@H](F)C4)nc2c(F)c1-c1cc(O)cc2cccc(Cl)c12 [Compound 122] | < 0.5 | > 5
33 | Oc1cc(-c2c(OCC3CC3)cc3c(N4CC5CCC(C4)N5)nc(OC[C@@]45CCCN4C[C@H](F)C5)nc3c2F)c2c(Cl)cccc2c1 [Compound 124] | < 0.5 | < 0.5
34 | Oc1cc(-c2c(Cl)cc3c(N4CCNCC4)nc(OC[C@@]45CCCN4C[C@H](F)C5)nc3c2F)c2ccccc2c1 [Compound 126] | 0.5 to 5 | 0.5 to 5
35 | C[C@H]1CNCCN1c1nc(OC[C@@]23CCCN2C[C@H](F)C3)nc2c(F)c(-c3cc(O)cc4ccccc34)c(Cl)cc12 [Compound 127] | 0.5 to 5 | 0.5 to 5
36 | C[C@@H]1CN(c2nc(OC[C@@]34CCCN3C[C@H](F)C4)nc3c(F)c(-c4cc(O)cc5ccccc45)c(Cl)cc23)[C@@H](C)CN1 [Compound 128] | > 5 | 0.5 to 5
37 | N#Cc1cc2c(N3CC4CCC(C3)N4)nc(OC[C@@]34CCCN3C[C@H](F)C4)nc2c(F)c1-c1cc(O)cc2ccc(F)c(Cl)c12 [Compound 129] | < 0.5 | < 0.5
38 | Cc1cc(N)nc(-c2c(Cl)cc3c(N4CC5CCC(C4)N5)nc(OC[C@@H]4CCCN4C)nc3c2F)c1 [Compound 130] | > 5 | > 5
39 | Cc1cccc2cccc(-c3c(Cl)cc4c(N5CC6CCC(C5)N6)nc(OC[C@@]56CCCN5C[C@H](F)C6)nc4c3F)c12 [Compound 131] | < 0.5 | 0.5 to 5
40 | Nc1nc2c(-c3c(Cl)cc4c(N5CC6CCC(C5)N6)nc(OC[C@@]56CCCN5C[C@H](F)C6)nc4c3F)cc(C(F)(F)F)cc2s1 [Compound 132] | < 0.5 | 0.5 to 5
41 | Cc1cc(N)nc(-c2c(Cl)cc3c(N4CCN[C@@H](CC#N)C4)nc(OC[C@@H]4C[C@@H](F)CN4C)nc3c2F)c1C(F)(F)F [Compound 135] | > 5 | > 5
42 | Cc1cccc2cc(F)cc(-c3c(Cl)cc4c(N5CC6CCC(C5)N6)nc(OC[C@@]56CCCN5C[C@H](F)C6)nc4c3F)c12 [Compound 137] | < 0.5 | 0.5 to 5
43 | Nc1nc2c(-c3c(Cl)cc4c(N5CC6CCC(C5)N6)ncnc4c3F)ccc(F)c2s1 [Compound 140] | 0.5 to 5 | 0.5 to 5
44 | Cc1cc(N)nc(-c2c(Cl)cc3c(N4CC5CCC(C4)N5)nc(OC[C@@]45CCCN4C[C@H](F)C5)nc3c2F)c1C(F)(F)F [Compound 142] | < 0.5 | < 0.5
45 | Nc1nc2c(-c3c(Cl)cc4c(N5CC6CCC(C5)N6)nc(OC[C@@]56CCCN5C[C@H](F)C6)nc4c3F)ccc(C(F)(F)F)c2s1 [Compound 143] | < 0.5 | 0.5 to 5
46 | COc1nc(N2CC3CCC(C2)N3)c2cc(Cl)c(-c3nc(N)cc(C)c3C(F)(F)F)c(F)c2n1 [Compound 144] | > 5 | 0.5 to 5
47 | C#Cc1c(F)ccc2cc(O)cc(-c3c(Cl)cc4c(N5CC6CCC(C5)N6)nc(OC[C@@]56CCCN5C[C@H](F)C6)nc4c3F)c12 [Compound 146] | < 0.5 | < 0.5
48 | C#Cc1c(F)ccc2cc(O)cc(-c3c(OC)cc4c(N5CC6CCC(C5)N6)nc(OC[C@@]56CCCN5C[C@H](F)C6)nc4c3F)c12 [Compound 163] | < 0.5 | < 0.5
